# Results reported in patent US12398154B2, “Azaquinazoline pan-KRas inhibitors” (Mirati Therapeutics, Inc., priority 2020, dated 2025).
# Columns and labels:
# [1] = system: phospho-ERK in NCI-H727 (G12V) cells; assay: Inhibition of KRas-mediated phosphorylation of ERK (in-cell western); format: cell-based; conditions: Homo sapiens, NCI-H727, 3 h, 3 hours compound, phospho-ERK normalized to GAPDH
# How it was run: (§1)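 After a 3-hour incubation with diluted compound in 0.5% DMSO, cells are fixed, permeabilized and stained overnight at 4° C for phosphorylated ERK and GAPDH.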
# [2] = system: phospho-ERK in NCI-H358 (G12C) cells; assay: as above; format: cell-based; conditions: Homo sapiens, 3 hours compound, phospho-ERK normalized to GAPDH
# How it was run: as §1
# [3] = system: phospho-ERK in HCT116 (G13D) cells; assay: as above; format: cell-based; conditions: Homo sapiens, HCT-116, 3 hours compound, phospho-ERK normalized to GAPDH
# How it was run: as §1
# [4] = system: phospho-ERK in MKN1 (WTdep) cells; assay: as above; format: cell-based; conditions: Homo sapiens, MKN-1, 3 hours compound, phospho-ERK normalized to GAPDH
# How it was run: as §1
# [5] = system: phospho-ERK in AsPC-1 (G12D) cells; assay: as above; format: cell-based; conditions: Homo sapiens, ASPC1, 3 h, 3 hours compound, phospho-ERK normalized to GAPDH
# How it was run: as §1
# [6] = system: phospho-ERK in A549 (G12S) cells; assay: as above; format: cell-based; conditions: Homo sapiens, 3 hours compound, phospho-ERK normalized to GAPDH
# How it was run: as §1
# [7] = system: phospho-ERK in NCI-H460 (Q61H) cells; assay: as above; format: cell-based; conditions: Homo sapiens, NCI-H460, 3 h, 3 hours compound, phospho-ERK normalized to GAPDH
# How it was run: as §1
# pERK in HCT116 cells = assay: Inhibition of KRas phosphorylation of ERK (Cisbio HTRF pERK assay); conditions: Homo sapiens, HCT-116, read-out: Inhibition (HTRF IC50) of KRas-mediated Phosphorylation of ERK, HCT116
# pERK in MKN1 cells = assay: as above; conditions: Homo sapiens, MKN-1, 3 h, read-out: Inhibition (HTRF IC50) of KRas-mediated Phosphorylation of ERK, MKN1
# pERK in H460 cells = assay: as above; conditions: Homo sapiens, NCI-H460, read-out: Inhibition (HTRF IC50) of KRas-mediated Phosphorylation of ERK, H460
# Method: (§2) To harvest cells from flask using 0.05% Trypsin/EDTA solution. Add 10 mL of media to stop trypsinizing. Pipette the cells into a conical bottom 50 mL centrifuge tube and centrifuge 5 min×1000 rpm. • 2. Re-suspend the cell pellet in media, take a cell count, and then adjust the cell density using fresh media. • 3. Seed 6,000 cells into cell culture plate with 50 μL media. […] Incubate cell plate overnight in a 37° C., 5% CO2 incubator. • Compound titrations • 1. Use Tecan to complete the compound addition. Compounds start from 10 uM top, 3-fold dilution, and 10 doses. The final DMSO concentration is 0.8%. Dispensed 0.2 uM Trametinib as Min control. • 2. Incubate cell plate for 3 hrs in the incubator. • Detection with cisbio pERK HTRF kit • 1. […] At the end of the compound treatment, flick-off the media. • 3. Add 35 μL of lysis buffer per well using a Multidrop Combi. Then place on a plate agitator shaking at 300 rpm at 4° C. for 40 mins. • 4. Make up the HTRF antibody buffer. For each assay plate, mix 50 μL of d2-conjugate antibody with 950 μL of detection buffer. Similarly, mix 50 μL of Cryptate antibody with 950 μL of detection buffer. Then mix the two diluted antibodies together. • 5. Dispense 3.4 μL the antibody buffer to wells of an empty assay plate. Seal the plate and centrifuge plate 30 sec×1000 rpm. • 6. At the end of the 4° C. lysis, centrifuge the lysate plates 3 mins×1500 rpm. • 7. Use the Bravo to transfer 13.6 μL of lysate from cell culture plate to assay plate.
# (§3) Then incubate assay plate for 2 hrs at room temperature. […] At the end of incubation, read plate on the Envision after centrifuging plate 30 sec× • 1000 rpm.
# pERK in H727 cells = assay: as above; conditions: Homo sapiens, NCI-H727, read-out: Inhibition (HTRF IC50) of KRas-mediated Phosphorylation of ERK, H727
# pERK in PSN1 cells = assay: as above; conditions: Homo sapiens, PSN1, 3 h, read-out: Inhibition (HTRF IC50) of KRas-mediated Phosphorylation of ERK, PSN1
# pERK in A549 cells = assay: as above; conditions: Homo sapiens, A549, read-out: Inhibition (HTRF IC50) of KRas-mediated Phosphorylation of ERK, A549
# Method: as §2, §3
# pERK in ASPC1 cells = assay: as above; conditions: Homo sapiens, ASPC1, read-out: Inhibition (HTRF IC50) of KRas-mediated Phosphorylation of ERK, AsPC-1
# [8] = system: phospho-ERK in PSN-1 (G12R) cells; assay: Inhibition of KRas-mediated phosphorylation of ERK (in-cell western); format: cell-based; conditions: Homo sapiens, PSN1, 3 hours compound, phospho-ERK normalized to GAPDH
# How it was run: as §1
# KRas G12D = KRas G12D (Homo sapiens, UniProt P01116, G12D); assay: biochemical;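 also: TR-FRET displacement binding assay on KRas, read after a one-hour incubation at room temperature, IC50 fitted from percent-of-control values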
# Method: (§4) The ability of a compound to bind to KRas was measured using a TR-FRET displacement assay. […] After a 60-minute incubation at room temperature, the reaction was measured using a BMG LABTECH CLARIO star Plus via TR-FRET. […] The POC values were fit to a 4-parameter IC50 equation and the IC50 value reported.
# KRas G12R = KRas G12R (Homo sapiens, UniProt P01116, G12R); assay: biochemical;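 also: TR-FRET displacement assay of compound binding to KRas, read after one hour at room temperature, potency from a four-parameter fit of percent-of-control values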
# Method: as §4
# KRas G12V = KRas G12V (Homo sapiens, UniProt P01116, G12V); assay: biochemical;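 also: KRas binding measured by TR-FRET displacement at room temperature, IC50 fitted from percent of control values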
# Method: as §4
# pERK in H358 cells = assay: Inhibition of KRas phosphorylation of ERK (Cisbio HTRF pERK assay); conditions: Homo sapiens, NCI-H358, read-out: Inhibition (HTRF IC50) of KRas-mediated Phosphorylation of ERK, H358
# Method: as §2, §3
# KRas G12C = KRas G12C (Homo sapiens, UniProt P01116, G12C); assay: biochemical;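 also: binding to KRas assessed by TR-FRET displacement after one hour incubation at room temperature, potency fitted from percent-of-control values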
# Sequence of KRas G12C (P01116 1-169 isoform P01116-2 G12C): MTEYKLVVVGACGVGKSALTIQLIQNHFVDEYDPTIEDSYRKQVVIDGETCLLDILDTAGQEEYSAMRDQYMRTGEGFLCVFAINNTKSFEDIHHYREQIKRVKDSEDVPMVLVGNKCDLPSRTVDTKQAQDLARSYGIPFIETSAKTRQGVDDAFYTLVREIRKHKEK
# Method: as §4
# Sequence of KRas G12V (P01116 1-169 isoform P01116-2 G12V): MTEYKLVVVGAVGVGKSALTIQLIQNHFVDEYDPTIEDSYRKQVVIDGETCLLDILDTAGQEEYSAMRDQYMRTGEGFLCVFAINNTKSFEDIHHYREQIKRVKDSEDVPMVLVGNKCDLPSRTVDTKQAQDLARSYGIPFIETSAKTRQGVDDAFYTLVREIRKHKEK
# Sequence of KRas G12D (P01116 1-169 isoform P01116-2 G12D): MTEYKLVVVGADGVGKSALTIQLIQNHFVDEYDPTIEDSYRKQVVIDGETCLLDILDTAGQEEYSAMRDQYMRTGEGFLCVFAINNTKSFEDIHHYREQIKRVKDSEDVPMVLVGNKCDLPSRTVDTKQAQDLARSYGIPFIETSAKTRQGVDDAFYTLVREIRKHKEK
# Sequence of KRas G12R (P01116 1-169 isoform P01116-2 G12R): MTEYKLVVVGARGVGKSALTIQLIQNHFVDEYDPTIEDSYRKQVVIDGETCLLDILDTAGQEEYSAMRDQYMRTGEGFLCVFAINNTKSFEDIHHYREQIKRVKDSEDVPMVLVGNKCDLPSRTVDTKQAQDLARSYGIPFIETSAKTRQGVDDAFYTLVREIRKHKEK
SMILES,IC50 (pERK in HCT116 cells),IC50 (pERK in MKN1 cells),IC50 (pERK in H460 cells),IC50 (pERK in H727 cells),IC50 (pERK in PSN1 cells),IC50 (pERK in A549 cells),IC50 (pERK in ASPC1 cells),IC50 (KRas G12D),IC50 (KRas G12R),IC50 (KRas G12V),IC50 (pERK in H358 cells),IC50 (KRas G12C),IC50 [1],IC50 [2],IC50 [3],IC50 [4],IC50 [5],IC50 [6],IC50 [7],IC50 [8]
"CCc1c(F)ccc2cc(O)cc(-c3ncc4c(Nc5ccc6cn[nH]c6c5)nc(OC[C@@]56CCCN5C[C@H](F)C6)nc4c3F)c12 [Example 171, 4-(4-((1H-indazol-6-yl)amino)-8-fluoro-2-(((2R,7aS)-2-fluorohexahydro-1H-pyrrolizin-7a-yl)methoxy)pyrido[4,3-d]pyrimidin-7-yl)-5-ethyl-6-fluoronaphthalen-2-ol]",–,–,–,–,–,–,–,89 nM,9 nM,3 nM,–,–,≥ 10000 nM,≥ 10000 nM,≥ 10000 nM,–,–,≥ 10000 nM,–,≥ 10000 nM
"CCc1c(F)ccc2cc(O)cc(-c3ncc4c(Nc5ccc6cnn(C)c6c5)nc(OC[C@@]56CCCN5C[C@H](F)C6)nc4c3F)c12 [Example 174, 5-ethyl-6-fluoro-4-(8-fluoro-2-(((2R,7aS)-2-fluorohexahydro-1H-pyrrolizin-7a-yl)methoxy)-4-((1-methyl-1H-indazol-6-yl)amino)pyrido[4,3-d]pyrimidin-7-yl)naphthalen-2-ol]",–,–,–,–,–,–,–,89 nM,13 nM,4 nM,–,–,≥ 10000 nM,1290 nM,≥ 10000 nM,–,–,4950 nM,–,≥ 10000 nM
"CCc1c(F)ccc2cc(O)cc(-c3ncc4c(N5CCCC(O)C5)nc(OC[C@@]56CCCN5C[C@H](F)C6)nc4c3F)c12 (stereo partly drawn) [Example 299, 1-(7-(8-ethyl-7-fluoro-3-hydroxynaphthalen-1-yl)-8-fluoro-2-(((2R,7aS)-2-fluorohexahydro-1H-pyrrolizin-7a-yl)methoxy)pyrido[4,3-d]pyrimidin-4-yl)piperidin-3-ol]",–,–,–,–,–,–,–,–,–,–,–,–,126 nM,29 nM,333 nM,–,–,108 nM,–,≥ 10000 nM
"CCc1c(F)ccc2cc(O)cc(-c3ncc4c(N5CCC[C@@](C)(O)C5)nc(OC[C@]56CCCN5[C@H](CO)CC6)nc4c3F)c12 [Example 302, (R)-1-(7-(8-ethyl-7-fluoro-3-hydroxynaphthalen-1-yl)-8-fluoro-2-(((3S,7aR)-3-(hydroxymethyl)tetrahydro-1H-pyrrolizin-7a(5H)-yl)methoxy)pyrido[4,3-d]pyrimidin-4-yl)-3-methylpiperidin-3-ol]",179 nM,3 nM,120 nM,82 nM,2530 nM,65 nM,31 nM,≤ 2 nM,≤ 2 nM,≤ 2 nM,26 nM,–,360 nM,–,–,5 nM,152 nM,–,193 nM,–
"CCc1c(F)ccc2cc(O)cc(-c3ncc4c(N5CCC[C@@](C)(O)C5)nc(OCC5(CN6CCCC6)CC5)nc4c3F)c12 [Example 202, (3R)-1-[7-(8-ethyl-7-fluoro-3-hydroxy-1-naphthyl)-8-fluoro-2-[[1-(pyrrolidin-1-ylmethyl)cyclopropyl]methoxy]pyrido[4,3-d]pyrimidin-4-yl]-3-methyl-piperidin-3-ol]",47 nM,5 nM,28 nM,33 nM,2490 nM,9 nM,7 nM,≤ 2 nM,≤ 2 nM,≤ 2 nM,4 nM,≤ 2 nM,159 nM,–,–,3 nM,60 nM,–,74 nM,–

# Continued, in another order:
IC50 (pERK in HCT116 cells),IC50 (pERK in MKN1 cells),IC50 (pERK in H460 cells),IC50 (pERK in H727 cells),IC50 (pERK in PSN1 cells),IC50 (pERK in A549 cells),IC50 (pERK in ASPC1 cells),IC50 (KRas G12D),IC50 (KRas G12R),IC50 (KRas G12V),IC50 (pERK in H358 cells),IC50 (KRas G12C),SMILES,IC50 [1],IC50 [2],IC50 [3],IC50 [4],IC50 [5],IC50 [6],IC50 [7],IC50 [8]
11 nM,2 nM,5 nM,6 nM,1010 nM,5 nM,3 nM,–,–,–,–,–,CCc1c(F)ccc2cc(O)cc(-c3ncc4c(N5CCOC[C@@](C)(O)C5)nc(OC[C@@]56CCCN5C[C@H](F)C6)nc4c3F)c12 [Example 200],67 nM,13 nM,21 nM,3 nM,47 nM,3 nM,22 nM,–
–,–,–,–,–,–,–,3 nM,≤ 2 nM,≤ 2 nM,–,–,CCc1c(F)ccc2cc(O)cc(-c3ncc4c(NCC5CS(=O)(=O)C5)nc(OC[C@@]56CCCN5C[C@H](F)C6)nc4c3F)c12 [Example 177],≥ 10000 nM,54 nM,1700 nM,–,–,764 nM,–,≥ 10000 nM
–,–,–,–,–,–,–,7 nM,≤ 2 nM,≤ 2 nM,–,–,CCc1c(F)ccc2cc(O)cc(-c3ncc4c(NC56CC(O)(C5)C6)nc(OC[C@@]56CCCN5C[C@H](F)C6)nc4c3F)c12 [Example 166],≥ 10000 nM,328 nM,≥ 10000 nM,–,–,≥ 10000 nM,–,≥ 10000 nM
–,–,–,–,–,–,–,≤ 2 nM,≤ 2 nM,≤ 2 nM,–,–,CCc1c(F)ccc2cc(O)cc(-c3ncc4c(N5CCCC(CS(N)(=O)=O)C5)nc(OC[C@@]56CCCN5C[C@H](F)C6)nc4c3F)c12 (some centres unmarked) [Example 170],3400 nM,470 nM,2350 nM,–,–,≥ 10000 nM,–,≥ 10000 nM
82 nM,7 nM,42 nM,36 nM,3790 nM,44 nM,8 nM,–,–,–,–,–,CCc1c(F)ccc2cc(O)cc(-c3ncc4c(N5CCC[C@@H](O)C5)nc(OC[C@@]56CCCN5C[C@H](F)C6)nc4c3F)c12 [Example 193],133 nM,41 nM,63 nM,4 nM,94 nM,–,44 nM,–
7 nM,1 nM,4 nM,4 nM,922 nM,2 nM,7 nM,≤ 2 nM,≤ 2 nM,≤ 2 nM,–,–,"CCc1c(F)ccc2cc(O)cc(-c3ncc4c(N5C[C@@H]6C[C@H](C5)[C@H](O)C6)nc(OC[C@@]56CCCN5C[C@H](F)C6)nc4c3F)c12 (single isomer, unassigned) [Example 140]",28 nM,–,11 nM,2 nM,27 nM,9 nM,17 nM,1 nM
–,–,–,–,–,–,–,5 nM,≤ 2 nM,≤ 2 nM,–,–,CCc1c(F)ccc2cc(O)cc(-c3ncc4c(NC5CS(=O)(=O)C5)nc(OC[C@@]56CCCN5C[C@H](F)C6)nc4c3F)c12 [Example 168],1800 nM,156 nM,821 nM,–,–,≥ 10000 nM,–,≥ 10000 nM
